From patent US5045566A, “Novel imidate insecticides” (ICI Americas Inc., priority 1989, dated 1991)

What was measured:
Assay type in all cases: in vivo
[1] = test system: Cabbage Looper [Trichoplusia ni (Hubner)]; experiment: Cabbage looper leaf dip (CL), 3-5 days; details: percent in solution, second-instar larvae
How it was run: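 Steps: dilute compound in 50-50 acetone-water from 0.1% downward; immerse cotyledon pieces 2-3 s and dry; place in humid petri dishes with five second-instar larvae; record mortality at 3-5 days. Dosage-mortality curves yield LC50 as percent in solution.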

[2] = test system: Black Bean Aphid [Aphis fabae (Scop.)]; experiment: Black bean aphid spray test on nasturtium (BBA), 48 hours; details: percent of test compound in sprayed solution
How it was run: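 LC50, given as percent test compound in the sprayed liquid, was calculated from dosage-mortality curves using concentrations from 0.05% downward. Sprays in 50:50 acetone-water went to runoff on ~5 cm nasturtiums carrying 25-50 aphids of mixed ages, one day after infestation. Deaths were counted 48 h later under greenhouse conditions.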

[3] = test system: Maize weevil [Sitophilus zeamais (Motschulsky)]; experiment: Maize weevil on dipped corn seeds (MW), 48 hours; details: percent in solution, adult weevils
How it was run: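 LC50, given as percent of compound in dipping solution, comes from dosage-mortality curves over concentrations descending from 0.01%. Four corn seeds soaked 2-3 s in 50:50 acetone:water solution were dried and held with 10 adult weevils, about 25° C, mortality read after 48 h.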

[4] = test system: Housefly [Musca domestica]; experiment: Housefly contact mortality in dishes (HF), 48 hours; details: μg of test compound per 25 female flies
How it was run: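 Residual contact test: acetone dilution, 0.01% peanut oil spreader, solvent evaporated; 25 ♀ flies (1-2 d old) per cage; sugar-water plug; 48 h mortality read. LC50 in μg/25 female flies, from dose-mortality curves; top dose 100 μg/25 flies.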

[5] = test system: Aster Leafhopper [Macrosteles fascifrens (Stal)]; experiment: Aster leafhopper on dipped oat seedlings (LH), 48 hours; details: percent in solution, adults/nymphs
Method: The compounds in Tables 1 and 2 above were tested for insecticidal activity using the following testing procedures. LC50 values, based on the results of these tests and calculated according to dosage-mortality curves, are expressed in Table 3.
Aster Leafhopper [Macrosteles fascifrens (Stal)]
Oat seedlings (Avena sp) were grown in a commercial potting soil in cups. When the plants were approximately 10 cm tall they were thinned to three plants per cup and dipped for 2-3 seconds in 50-50 acetone-water solutions of the test compounds. When the plants had dried, a clear plastic tube was placed over them and the bottom end pressed into the cup. Ten aster leafhopper adults/nymphs were then placed in each tube and the tops of the tubes covered with white organdy cloth. Mortality counts were made after 48 hours. Test concentrations ranged from 0.05% down to that at which 50% mortality occurred. The LC50 values are expressed below in Table 3 under the heading "LH" in terms of the percent of the test compound in the solution.

[6] = test system: Tobacco Budworm [Heliothis virescens (Fabricius)] eggs; experiment: Tobacco budworm eggs (TBW-E); details: percent in solution; 2-day old eggs
How it was run: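 Mortality of dipped eggs served as read-out, recorded after untreated controls hatched and began feeding. Treatments used acetone solutions from 0.1% downward, with eggs incubated at 78° F; LC50 is expressed as percent of compound in the solution.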

## C=C(C)C(=Nc1ccc(Cl)cc1)OCc1cccc(Oc2ccccc2)c1 [Compound 6]
[1]
  LC50 CL: 0.02%
[2]
  LC50 BBA: 0.001%
[3]
  LC50 MW: > 0.01%
[4]
  LC50 HF: 17 µg
[5]
  LC50 LH: > 0.05%
[6]
  LC50 TBW E (eggs): 0.015%

## CC(C)C(=Nc1ccc(F)cc1)OCCc1cccc(Oc2ccccc2)c1 [Compound 456]
[1]
  LC50 CL: 0.017%
[2]
  LC50 BBA: 0.01%
[3]
  LC50 MW: > 0.01%
[4]
  LC50 HF: > 100 µg
[5]
  LC50 LH: > 0.05%
[6]
  LC50 TBW E (eggs): > 0.05%

## CSc1ccc(Oc2cccc(COC(=Nc3ccc(F)c(Cl)c3)C(C)C)c2)cc1 [Compound 256]
[1]
  LC50 CL: 0.007%
[2]
  LC50 BBA: 0.03%
[3]
  LC50 MW: > 0.01%
[4]
  LC50 HF: > 100 µg
[5]
  LC50 LH: > 0.05%
[6]
  LC50 TBW E (eggs): 0.1%

## CC(C)C(=Nc1ccc2c(c1)OCO2)OCc1cccc(Oc2ccc(Cl)cn2)c1 [Compound 532]
[1]
  LC50 CL: < 0.1%
[2]
  LC50 BBA: > 0.05%
[3]
  LC50 MW: > 0.01%
[4]
  LC50 HF: > 100 µg
[5]
  LC50 LH: > 0.05%
[6]
  LC50 TBW E (eggs): > 0.1%

## Cc1cc(N=C(OCc2ccc(F)c(Oc3ccccc3)c2)C(C)C)ccc1Br [Compound 358]
[1]
  LC50 CL: > 0.1%
[2]
  LC50 BBA: 0.0003%
[3]
  LC50 MW: > 0.01%
[4]
  LC50 HF: < 100 µg
[5]
  LC50 LH: < 0.05%
[6]
  LC50 TBW E (eggs): > 0.1%

## CC(C)C(=Nc1ccccc1C(F)(F)F)OCc1cccc(Oc2ccccc2)c1 [Compound 72]
[1]
  LC50 CL: 0.08%
[2]
  LC50 BBA: > 0.05%
[3]
  LC50 MW: > 0.01%
[4]
  LC50 HF: > 100 µg
[5]
  LC50 LH: > 0.05%
[6]
  LC50 TBW E (eggs): > 0.1%

## C=CCOc1cccc(COC(=Nc2ccc(F)c(Cl)c2)C(C)C)c1 [Compound 479]
[1]
  LC50 CL: 0.013%
[2]
  LC50 BBA: > 0.05%
[3]
  LC50 MW: > 0.01%
[4]
  LC50 HF: 66 µg
[5]
  LC50 LH: > 0.05%
[6]
  LC50 TBW E (eggs): > 0.1%

## CC(C)(C)C(=Nc1ccc(Cl)c(Cl)c1)OCc1cccc(Oc2ccccc2)c1 [Compound 25]
[1]
  LC50 CL: 0.01%
[2]
  LC50 BBA: > 0.1%
[3]
  LC50 MW: > 0.01%
[4]
  LC50 HF: > 100 µg
[5]
  LC50 LH: > 0.05%
[6]
  LC50 TBW E (eggs): > 0.1%

## COc1cccc(N=C(OCc2cccc(Oc3ccccc3)c2)C(C)C)c1 [Compound 143]
[1]
  LC50 CL: 0.002%
[2]
  LC50 BBA: 0.002%
[3]
  LC50 MW: > 0.01%
[4]
  LC50 HF: 10 µg
[5]
  LC50 LH: 0.006%
[6]
  LC50 TBW E (eggs): < 0.1%

## CC(=Nc1ccc(F)c(F)c1)OCc1coc(Cc2ccccc2)c1 [Compound 526]
[1]
  LC50 CL: > 0.1%
[2]
  LC50 BBA: > 0.05%
[3]
  LC50 MW: > 0.01%
[4]
  LC50 HF: 8.3 µg
[5]
  LC50 LH: > 0.05%
[6]
  LC50 TBW E (eggs): > 0.1%

## CC(C)C(=Nc1ccccc1)OCc1cccc(Oc2ccccc2)c1 [Compound 43]
[1]
  LC50 CL: 0.018%
[2]
  LC50 BBA: 0.001%
[3]
  LC50 MW: > 0.01%
[4]
  LC50 HF: 7 µg
[5]
  LC50 LH: > 0.05%
[6]
  LC50 TBW E (eggs): 0.05%

## CC(C)C(=Nc1ccc(F)c(Cl)c1)OCc1cccc(Oc2ccc(Br)cc2)n1 [Compound 492]
[1]
  LC50 CL: 0.00028%
[2]
  LC50 BBA: > 0.05%
[3]
  LC50 MW: > 0.01%
[4]
  LC50 HF: 15 µg
[5]
  LC50 LH: > 0.05%
[6]
  LC50 TBW E (eggs): 0.015%

## CC(C)C(=Nc1ccc(C(F)(F)F)cc1)OCc1cccc(Cc2ccccc2)c1 [Compound 535]
[1]
  LC50 CL: > 0.1%
[2]
  LC50 BBA: > 0.05%
[3]
  LC50 MW: > 0.01%
[4]
  LC50 HF: 41 µg
[5]
  LC50 LH: > 0.05%
[6]
  LC50 TBW E (eggs): > 0.1%

## COc1ccc(N=C(OCc2ccc(F)c(Oc3ccc(F)cc3)c2)C(C)C)cc1OC [Compound 363]
[1]
  LC50 CL: > 0.1%
[2]
  LC50 BBA: 0.005%
[3]
  LC50 MW: > 0.01%
[4]
  LC50 HF: < 100 µg
[5]
  LC50 LH: > 0.05%
[6]
  LC50 TBW E (eggs): > 0.1%

## CC(C)C(=Nc1ccccc1Cl)OCc1cccc(Oc2ccccc2)c1 [Compound 17]
[1]
  LC50 CL: 0.03%
[2]
  LC50 BBA: 0.03%
[3]
  LC50 MW: > 0.01%
[4]
  LC50 HF: 75 µg
[5]
  LC50 LH: > 0.05%
[6]
  LC50 TBW E (eggs): > 0.1%

## CC(C)(F)C(=Nc1ccc(F)c(Cl)c1)OCc1cccc(Oc2ccc(F)cc2F)c1 [Compound 315]
[1]
  LC50 CL: 0.002%
[2]
  LC50 BBA: > 0.05%
[3]
  LC50 MW: > 0.01%
[4]
  LC50 HF: > 100 µg
[5]
  LC50 LH: > 0.05%
[6]
  LC50 TBW E (eggs): > 0.1%

## Cc1ccc(N=C(OCc2ccc(F)c(Oc3ccccc3)c2)C(C)C)cc1Cl [Compound 356]
[1]
  LC50 CL: > 0.1%
[2]
  LC50 BBA: 0.001%
[3]
  LC50 MW: > 0.01%
[4]
  LC50 HF: < 100 µg
[5]
  LC50 LH: < 0.05%
[6]
  LC50 TBW E (eggs): 0.025%

## CC(C)C(=Nc1ccc2c(c1)OCO2)OCc1cccc(Oc2ccc(Cl)cc2)c1 [Compound 240]
[1]
  LC50 CL: 0.0003%
[2]
  LC50 BBA: 0.001%
[3]
  LC50 MW: > 0.01%
[4]
  LC50 HF: 14 µg
[5]
  LC50 LH: > 0.05%
[6]
  LC50 TBW E (eggs): 0.04%

## CC(C)C(=Nc1ccc(Cl)c(Cl)c1)OCc1cccc(Nc2ccc(F)cc2)c1 [Compound 514]
[1]
  LC50 CL: 0.008%
[2]
  LC50 BBA: 0.003%
[3]
  LC50 MW: > 0.01%
[4]
  LC50 HF: > 100 µg
[5]
  LC50 LH: > 0.05%
[6]
  LC50 TBW E (eggs): > 0.1%

## CC(C)C(=Nc1ccc(C(C)(C)C)cc1)OCc1cccc(Oc2ccccc2)c1 [Compound 153]
[1]
  LC50 CL: 0.004%
[2]
  LC50 BBA: 0.003%
[3]
  LC50 MW: > 0.01%
[4]
  LC50 HF: > 100 µg
[5]
  LC50 LH: 0.0005%
[6]
  LC50 TBW E (eggs): 0.1%

## CCc1ccc(N=C(OCc2ccc(F)c(Oc3ccccc3)c2)C(C)C)cc1 [Compound 360]
[1]
  LC50 CL: 0.006%
[2]
  LC50 BBA: 0.0006%
[3]
  LC50 MW: > 0.01%
[4]
  LC50 HF: < 100 µg
[5]
  LC50 LH: < 0.05%
[6]
  LC50 TBW E (eggs): > 0.1%

## COc1ccc(N=C(OCc2cccc(Oc3ccccc3)c2)C(C)C)cc1 [Compound 160]
[1]
  LC50 CL: 0.005%
[2]
  LC50 BBA: 0.003%
[3]
  LC50 MW: > 0.01%
[4]
  LC50 HF: 7 µg
[5]
  LC50 LH: 0.05%
[6]
  LC50 TBW E (eggs): 0.09%

## Cc1ccc(N=C(OCc2ccc(F)c(Oc3ccc(F)cc3)c2)C(C)C)cc1F [Compound 355]
[1]
  LC50 CL: > 0.1%
[2]
  LC50 BBA: 0.0006%
[3]
  LC50 MW: > 0.01%
[4]
  LC50 HF: < 100 µg
[5]
  LC50 LH: < 0.05%
[6]
  LC50 TBW E (eggs): > 0.1%

## Cc1ccc(N=C(OCc2cccc(Oc3ccccc3)c2)C(C)C)cc1 [Compound 156]
[1]
  LC50 CL: 0.004%
[2]
  LC50 BBA: 0.001%
[3]
  LC50 MW: > 0.01%
[4]
  LC50 HF: 10 µg
[5]
  LC50 LH: > 0.05%
[6]
  LC50 TBW E (eggs): 0.05%

## Cc1cccc(N=C(OCc2cccc(Oc3ccc(Cl)cc3)n2)C(C)C)c1 [Compound 545]
[1]
  LC50 CL: > 0.1%
[2]
  LC50 BBA: 0.005%
[3]
  LC50 MW: > 0.01%
[4]
  LC50 HF: < 100 µg
[5]
  LC50 LH: > 0.05%
[6]
  LC50 TBW E (eggs): > 0.1%

## CC(C)C(=Nc1cc(Cl)ccc1Cl)OCc1cccc(Oc2ccccc2)c1 [Compound 13]
[1]
  LC50 CL: 0.014%
[2]
  LC50 BBA: 0.003%
[3]
  LC50 MW: > 0.01%
[4]
  LC50 HF: > 100 µg
[5]
  LC50 LH: > 0.05%
[6]
  LC50 TBW E (eggs): > 0.1%

## CC(C)(F)C(=Nc1ccc(F)c(Cl)c1)OCc1cc(Oc2ccc(F)cc2)ccc1F [Compound 316]
[1]
  LC50 CL: 0.0015%
[2]
  LC50 BBA: > 0.05%
[3]
  LC50 MW: > 0.01%
[4]
  LC50 HF: 100 µg
[5]
  LC50 LH: > 0.05%
[6]
  LC50 TBW E (eggs): > 0.1%

## CC(C)C(=Nc1ccc2c(c1)OCO2)OCc1ccnc(Oc2ccccc2)c1 [Compound 540]
[1]
  LC50 CL: < 0.1%
[2]
  LC50 BBA: > 0.05%
[3]
  LC50 MW: > 0.01%
[4]
  LC50 HF: > 100 µg
[5]
  LC50 LH: > 0.05%
[6]
  LC50 TBW E (eggs): > 0.1%

## CC(C)C(=Nc1cccc(Br)c1)OCc1cccc(Oc2ccccc2)c1 [Compound 128]
[1]
  LC50 CL: 0.005%
[2]
  LC50 BBA: 0.001%
[3]
  LC50 MW: > 0.01%
[4]
  LC50 HF: 4.5 µg
[5]
  LC50 LH: 0.003%
[6]
  LC50 TBW E (eggs): 0.037%
